What all share (type): biochemical
The target of assay [1] is T1, human Yes1 enzyme (Homo sapiens, UniProt P07947).
T1 construct: made in house
Description: Yes1 enzyme inhibitory activity (time-resolved fluorometry, biotinylated peptide phosphorylation). Particulars: biotinylated peptide phosphorylation, read-out: YES_IC50. Summed up:
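Inhibition was expressed against a compound-free control to give IC50, using TR-FRET read-out (Eu-cryptate anti-pTyr antibody, streptavidin-XL665).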

The target of assay [2] is T2, human Src enzyme (Homo sapiens, UniProt P12931).
T2 construct: purchased Carna Biosciences, Inc. 08-173
T2 sequence (P12931 whole entry): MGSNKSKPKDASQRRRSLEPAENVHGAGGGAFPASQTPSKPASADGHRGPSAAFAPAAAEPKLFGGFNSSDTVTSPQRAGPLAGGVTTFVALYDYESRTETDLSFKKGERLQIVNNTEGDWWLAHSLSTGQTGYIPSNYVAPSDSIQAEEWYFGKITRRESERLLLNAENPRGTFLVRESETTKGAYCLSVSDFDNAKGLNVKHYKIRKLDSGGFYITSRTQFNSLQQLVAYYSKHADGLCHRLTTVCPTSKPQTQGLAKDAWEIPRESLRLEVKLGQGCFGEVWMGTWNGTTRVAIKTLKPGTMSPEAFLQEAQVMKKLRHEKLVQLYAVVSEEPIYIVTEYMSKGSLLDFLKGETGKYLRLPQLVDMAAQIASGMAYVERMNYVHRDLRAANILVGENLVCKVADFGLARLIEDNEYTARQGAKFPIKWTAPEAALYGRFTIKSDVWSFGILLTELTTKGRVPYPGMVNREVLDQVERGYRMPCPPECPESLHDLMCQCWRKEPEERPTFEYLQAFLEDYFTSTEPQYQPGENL
As to the kind of experiment: Src enzyme inhibitory activity (time-resolved fluorometry, biotinylated peptide phosphorylation). Particulars: biotinylated peptide phosphorylation, read-out: SRC_IC50. In a few lines: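 Compounds were tested for blocking tyrosine phosphorylation of a biotinylated peptide substrate by recombinant human Src. Phosphorylated product was quantified by time-resolved fluorometry using europium cryptate and XL665 conjugates, and IC50 was calculated against the compound-free control.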

The target in assay [3] is T3, human Lck enzyme (Homo sapiens, UniProt P06239).
T3 construct: purchased Carna Biosciences, Inc. 08-170
T3 sequence (P06239 whole entry): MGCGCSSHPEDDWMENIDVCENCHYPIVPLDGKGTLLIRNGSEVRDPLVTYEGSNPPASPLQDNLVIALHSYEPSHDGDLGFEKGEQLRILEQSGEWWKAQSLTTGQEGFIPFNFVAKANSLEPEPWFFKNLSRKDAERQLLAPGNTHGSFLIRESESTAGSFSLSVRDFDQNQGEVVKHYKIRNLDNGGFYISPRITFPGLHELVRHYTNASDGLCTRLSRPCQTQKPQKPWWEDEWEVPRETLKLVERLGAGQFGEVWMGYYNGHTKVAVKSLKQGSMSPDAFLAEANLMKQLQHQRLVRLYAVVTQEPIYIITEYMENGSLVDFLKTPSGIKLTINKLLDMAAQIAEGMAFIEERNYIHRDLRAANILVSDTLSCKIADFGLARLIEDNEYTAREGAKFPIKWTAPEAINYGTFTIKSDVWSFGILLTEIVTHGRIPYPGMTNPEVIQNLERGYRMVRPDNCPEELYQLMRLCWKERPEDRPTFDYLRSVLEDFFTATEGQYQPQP
As to the kind of experiment: Lck enzyme inhibitory activity (time-resolved fluorometry, biotinylated peptide phosphorylation). To be noted: biotinylated peptide phosphorylation, read-out: LCK_IC50. In a few lines:
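Readout pairs a europium cryptate-labelled anti-phosphotyrosine antibody with XL665-streptavidin, measured by time-resolved fluorescence. IC50 derived from percent inhibition against untreated controls.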

T1 sequence (P07947 whole entry): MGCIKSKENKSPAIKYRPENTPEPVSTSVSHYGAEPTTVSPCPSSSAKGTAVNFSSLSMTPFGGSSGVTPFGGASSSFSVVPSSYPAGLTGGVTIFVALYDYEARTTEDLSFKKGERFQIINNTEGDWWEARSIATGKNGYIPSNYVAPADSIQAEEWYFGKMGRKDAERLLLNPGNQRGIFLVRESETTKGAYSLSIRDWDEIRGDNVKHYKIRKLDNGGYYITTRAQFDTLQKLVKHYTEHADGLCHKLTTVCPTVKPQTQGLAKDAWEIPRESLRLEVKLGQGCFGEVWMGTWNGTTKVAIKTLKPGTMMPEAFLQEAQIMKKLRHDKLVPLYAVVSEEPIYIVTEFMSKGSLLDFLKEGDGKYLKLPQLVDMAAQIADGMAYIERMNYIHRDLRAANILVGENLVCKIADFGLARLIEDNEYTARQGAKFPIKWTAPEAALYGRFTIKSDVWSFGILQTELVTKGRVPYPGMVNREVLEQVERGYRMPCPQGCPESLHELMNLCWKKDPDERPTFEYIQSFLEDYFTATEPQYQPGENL

Take `Cc1cc2cc(C(=O)c3cnn(-c4cnc(Oc5ccccc5F)cc4C)c3N)[nH]c2cc1NS(=O)(=O)c1cc(Cl)cc(C#N)c1` [Example 5-1-498, N-[2-[5-amino-1-[6-(2-fluorophenoxy)-4-methylpyridin-3-yl]pyrazole-4-carbonyl]-5-methyl-1H-indol-6-yl]-3-chloro-5-cyanobenzenesulfonamide]: the IC50 came to 8.7 nM in assay [1], 1600 nM in assay [2] and 420 nM in assay [3].
For `Cc1cc2cc(C(=O)c3cnn(-c4cnc(Oc5ccccc5F)cc4C)c3N)[nH]c2cc1NS(=O)(=O)c1cc(C#N)cc(C(F)(F)F)c1` [Example 5-1-499, N-[2-[5-amino-1-[6-(2-fluorophenoxy)-4-methylpyridin-3-yl]pyrazole-4-carbonyl]-5-methyl-1H-indol-6-yl]-3-cyano-5-(trifluoromethyl)benzenesulfonamide], the IC50 in assay [1] worked out at 16 nM; in assay [2], 1800 nM; in assay [3], 550 nM.
On the same counts, the results for `Cc1cc2cc(C(=O)c3cnn(-c4cnc(Oc5ccccc5F)cc4C)c3N)[nH]c2cc1NS(=O)(=O)c1cccc(F)c1` [Example 5-1-500, N-[2-[5-amino-1-[6-(2-fluorophenoxy)-4-methylpyridin-3-yl]pyrazole-4-carbonyl]-5-methyl-1H-indol-6-yl]-3-fluorobenzenesulfonamide] are 5.7 nM, 750 nM and 200 nM.
The corresponding values for `Cc1cc2cc(C(=O)c3cnn(-c4cnc(Oc5ccccc5F)cc4C)c3N)[nH]c2cc1NS(=O)(=O)c1c(F)cc(F)cc1F` [Example 5-1-501, N-[2-[5-amino-1-[6-(2-fluorophenoxy)-4-methylpyridin-3-yl]pyrazole-4-carbonyl]-5-methyl-1H-indol-6-yl]-2,4,6-trifluorobenzenesulfonamide] are 4.8 nM, 570 nM and 190 nM.
The corresponding values for `Cc1cc2cc(C(=O)c3cnn(-c4cnc(Oc5ccccc5F)cc4C)c3N)[nH]c2cc1NS(=O)(=O)c1cccc(F)n1` [Example 5-1-502, N-[2-[5-amino-1-[6-(2-fluorophenoxy)-4-methylpyridin-3-yl]pyrazole-4-carbonyl]-5-methyl-1H-indol-6-yl]-6-fluoropyridine-2-sulfonamide] are 2.3 nM, 350 nM and 110 nM.
On to `COc1ccccc1-c1cc2[nH]c(C(=O)c3cnn(-c4cnc(Oc5c(F)cccc5F)cc4C)c3N)cc2cc1OC1CCN(C2CCCC2)CC1` [Example 5-1-503, [5-amino-1-[6-(2,6-difluorophenoxy)-4-methylpyridin-3-yl]pyrazol-4-yl]-[5-(1-cyclopentylpiperidin-4-yl)oxy-6-(2-methoxyphenyl)-1H-indol-2-yl]methanone], for which the IC50 in assay [1] was determined as 1.9 nM; in assay [2], 87 nM; in assay [3] it was 15 nM.
Regarding `Cc1cnc(F)c(S(=O)(=O)Nc2cc3[nH]c(C(=O)c4cnn(-c5cnc(Oc6ccccc6F)cc5C)c4N)cc3cc2C)c1` [Example 5-1-504, N-[2-[5-amino-1-[6-(2-fluorophenoxy)-4-methylpyridin-3-yl]pyrazole-4-carbonyl]-5-methyl-1H-indol-6-yl]-2-fluoro-5-methylpyridine-3-sulfonamide], the IC50 in assay [1] came to 3.6 nM; in assay [2], 630 nM; in assay [3] it was 140 nM.
On the same counts, the results for `Cc1cc2cc(C(=O)c3cnn(-c4cnc(Oc5ccccc5F)cc4C)c3N)[nH]c2cc1NS(=O)(=O)c1cc(F)ccn1` [Example 5-1-505, N-[2-[5-amino-1-[6-(2-fluorophenoxy)-4-methylpyridin-3-yl]pyrazole-4-carbonyl]-5-methyl-1H-indol-6-yl]-4-fluoropyridine-2-sulfonamide] are 2.5 nM, 470 nM and 68 nM.
For the compound `Cc1ccnc(S(=O)(=O)Nc2cc3[nH]c(C(=O)c4cnn(-c5cnc(Oc6ccccc6F)cc5C)c4N)cc3cc2C)c1` [Example 5-1-506, N-[2-[5-amino-1-[6-(2-fluorophenoxy)-4-methylpyridin-3-yl]pyrazole-4-carbonyl]-5-methyl-1H-indol-6-yl]-4-rmethylpyridine-2-sulfonamide], the IC50 was found to be 3 nM in assay [1], 500 nM in assay [2] and 99 nM in assay [3].
Turning to `Cc1cccc(S(=O)(=O)Nc2cc3[nH]c(C(=O)c4cnn(-c5cnc(Oc6ccccc6F)cc5C)c4N)cc3cc2C)n1` [Example 5-1-507, N-[2-[5-amino-1-[6-(2-fluorophenoxy)-4-methylpyridin-3-yl]pyrazole-4-carbonyl]-5-methyl-1H-indol-6-yl]-6-methylpyridine-2-sulfonamide], the IC50 in assay [1] amounted to 2.8 nM; in assay [2], 480 nM; in assay [3], 92 nM.
On the same counts, the results for `Cc1cc2cc(C(=O)c3cnn(-c4cnc(Oc5ccccc5F)cc4C)c3N)[nH]c2cc1NS(=O)(=O)c1cccc(Cl)n1` [Example 5-1-508, N-[2-[5-amino-1-[6-(2-fluorophenoxy)-4-methylpyridin-3-yl]pyrazole-4-carbonyl]-5-methyl-1H-indol-6-yl]-6-chloropyridine-2-sulfonamide] are 4 nM, 920 nM and 140 nM.
On the same counts, the results for `Cc1cc2cc(C(=O)c3cnn(-c4cnc(Oc5ccccc5F)cc4C)c3N)[nH]c2cc1NS(=O)(=O)c1cc(Cl)ccn1` [Example 5-1-509, N-[2-[5-amino-1-[6-(2-fluorophenoxy)-4-methylpyridin-3-yl]pyrazole-4-carbonyl]-5-methyl-1H-indol-6-yl]-4-chloropyridine-2-sulfonamide] are 3.7 nM, 840 nM and 130 nM.
`COc1ccnc(S(=O)(=O)Nc2cc3[nH]c(C(=O)c4cnn(-c5ccc(Oc6ccccc6F)cc5C)c4N)cc3cc2C)c1` [Example 5-1-510, N-[2-[5-amino-1-[4-(2-fluorophenoxy)-2-methylphenyl]pyrazole-4-carbonyl]-5-methyl-1H-indol-6-yl]-4-methoxypyridine-2-sulfonamide]: the IC50 was 0.92 nM in assay [1], 230 nM in assay [2] and 89 nM in assay [3].
On the same counts, the results for `COc1ccnc(S(=O)(=O)Nc2cc3[nH]c(C(=O)c4cnn(-c5cnc(Oc6c(F)cccc6F)cc5C)c4N)cc3cc2C)c1` [Example 5-1-511, N-[2-[5-amino-1-[6-(2,6-difluorophenoxy)-4-methylpyridin-3-yl]pyrazole-4-carbonyl]-5-methyl-1H-indol-6-yl]-4-methoxypyridine-2-sulfonamide] are 2.7 nM, 520 nM and 240 nM.
On the same counts, the results for `COc1ccnc(S(=O)(=O)Nc2cc3[nH]c(C(=O)c4cnn(-c5ccc(Oc6ccccc6F)cc5C)c4N)cc3cc2F)c1` [Example 5-1-512, N-[2-[5-amino-1-[4-(2-fluorophenoxy)-2-methylphenyl]pyrazole-4-carbonyl]-5-fluoro-1H-indol-6-yl]-4-methoxypyridine-2-sulfonamide] are 1.2 nM, 250 nM and 33 nM.

The record behind these values is patent publication US10479780B2, “Aminopyrazole derivatives” (Chugai Seiyaku Kabushiki Kaisha, priority 2015, dated 2019).
